According to patent US5877334A, “Intermediates useful in solid phase synthesis method” (Abbott Laboratories, priority 1996, dated 1999):

Biological target: HIV1 protease (Human immunodeficiency virus type 1 group M subtype B, UniProt P04585)
Assay: inhibition of HIV1 protease
Assay type: biochemical
Conditions: A. Mono-ol (X = H); read-out: IC50 against HIV1 protease, A. Mono-ol (X = H)
Description: ^a The IC50 against HIV1 protease was measured according to the
method described in U.S. Pat. No. 5,354,866, issued October 11, 1994.

IC50 [nM]	Structure (SMILES)
< 1	CC(C)[C@H](NC(=O)CC1NC(=O)NC1=O)C(=O)N[C@@H](Cc1ccccc1)C[C@H](O)[C@H](Cc1ccccc1)NC(=O)[C@@H](NC(=O)CC1NC(=O)NC1=O)C(C)C (stereo partly shown) [Example 7A]
< 1	COc1cc(CC(=O)N[C@H](C(=O)N[C@@H](Cc2ccccc2)C[C@H](O)[C@H](Cc2ccccc2)NC(=O)[C@@H](NC(=O)Cc2cc(OC)c(OC)c(OC)c2)C(C)C)C(C)C)cc(OC)c1OC [Example 9A]
< 1	CC(C)[C@H](NC(=O)Cc1csc(N)n1)C(=O)N[C@@H](Cc1ccccc1)C[C@H](O)[C@H](Cc1ccccc1)NC(=O)[C@@H](NC(=O)Cc1csc(N)n1)C(C)C [Example 8A]
< 1	CC(C)[C@H](NC(=O)CSc1ncccn1)C(=O)N[C@@H](Cc1ccccc1)C[C@H](O)[C@H](Cc1ccccc1)NC(=O)[C@@H](NC(=O)CSc1ncccn1)C(C)C [Example 10A]
